Experimental findings from ChEMBL document CHEMBL2016543, “New tacrine-4-oxo-4H-chromene hybrids as multifunctional agents for the treatment of Alzheimer's disease, with cholinergic, antioxidant, and β-amyloid-reducing properties” (J Med Chem, 2012) are described below.

Activity calls are given as the source filed them. The rule behind the calls is not given here. Starred links: 1 amine or outer side, 2 acyl side, 3 side chain; linkers in the order of their positions; H or OH if unused. Non-standard residues stand in square brackets, D forms with d. Residues, ends and D or L forms follow the SMILES beside them. LeuΨ(S-CHOHCH2)Ala = CC(C)C[C@H](N[*:1])[C@@H](O)C[C@@H](C)C(=O)[*:2]

A word on the IC50: it is the concentration that inhibits the measured activity by half. Low values mean inhibition by little substance, high ones a need for much substance. The term Papp denotes the rate of passage across a membrane or cell layer, normalised by area and donor concentration. Higher therefore signals fast passage.

Series [1] has as its target Cholinesterase (Equus caballus) (UniProt P81908).
Description: (§1) Inhibition of horse serum BChE by Ellman's method
Series [2] addresses T1, Acetylcholinesterase (Bos taurus) (UniProt P23795).
T1 sequence (whole entry): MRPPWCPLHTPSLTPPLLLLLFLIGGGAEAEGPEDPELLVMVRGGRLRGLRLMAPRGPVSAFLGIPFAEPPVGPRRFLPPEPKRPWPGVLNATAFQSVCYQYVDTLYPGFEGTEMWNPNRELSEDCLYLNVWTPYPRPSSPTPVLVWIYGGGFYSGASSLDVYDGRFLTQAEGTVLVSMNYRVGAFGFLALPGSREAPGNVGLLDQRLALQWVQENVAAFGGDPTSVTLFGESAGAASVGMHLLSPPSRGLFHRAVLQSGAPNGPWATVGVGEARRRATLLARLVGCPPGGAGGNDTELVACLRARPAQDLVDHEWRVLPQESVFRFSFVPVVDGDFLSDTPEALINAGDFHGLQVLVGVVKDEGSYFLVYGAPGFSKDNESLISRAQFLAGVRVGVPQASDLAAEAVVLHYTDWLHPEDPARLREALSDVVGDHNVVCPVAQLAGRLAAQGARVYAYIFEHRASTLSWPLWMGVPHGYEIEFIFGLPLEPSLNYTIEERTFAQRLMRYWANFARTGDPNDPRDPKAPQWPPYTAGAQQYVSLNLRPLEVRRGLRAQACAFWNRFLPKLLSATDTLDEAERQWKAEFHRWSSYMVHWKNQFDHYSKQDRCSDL
Description: (§2) Inhibition of bovine erythrocytes AChE by Ellman's method

Series [3] deals with T2, Cholinesterase (Homo sapiens, UniProt P06276).
T2 sequence (P06276 whole entry): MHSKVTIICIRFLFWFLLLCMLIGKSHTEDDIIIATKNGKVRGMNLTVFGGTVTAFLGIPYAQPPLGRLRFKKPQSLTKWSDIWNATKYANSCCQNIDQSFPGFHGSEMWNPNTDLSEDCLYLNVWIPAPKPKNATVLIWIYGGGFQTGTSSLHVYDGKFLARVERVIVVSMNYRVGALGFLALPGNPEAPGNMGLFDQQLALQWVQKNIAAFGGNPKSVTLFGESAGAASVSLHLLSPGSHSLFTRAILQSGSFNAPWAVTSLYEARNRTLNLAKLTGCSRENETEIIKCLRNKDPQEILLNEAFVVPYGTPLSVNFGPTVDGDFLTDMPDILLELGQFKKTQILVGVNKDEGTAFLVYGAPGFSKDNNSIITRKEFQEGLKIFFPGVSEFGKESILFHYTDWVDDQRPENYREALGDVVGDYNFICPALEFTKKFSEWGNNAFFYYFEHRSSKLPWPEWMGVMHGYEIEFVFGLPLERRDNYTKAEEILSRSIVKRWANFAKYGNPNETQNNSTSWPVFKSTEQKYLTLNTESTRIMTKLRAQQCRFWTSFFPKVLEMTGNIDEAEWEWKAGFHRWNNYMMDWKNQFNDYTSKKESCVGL
Description: Inhibition of human serum BChE by Ellman's method
Series [4] addresses Cholinesterase (Equus caballus, UniProt P81908).
Description: as §1
A short description of the next series: in vitro. As to conditions: PAMPA, pH 7.4. Background: In PAMPA a lipid-coated filter parts donor from acceptor wells.
Series [5] concerns the target Acetylcholinesterase (Homo sapiens, UniProt P22303).
Description: Inhibition of human erythrocytes AChE by Ellman's method
In series [6] the target is T3, Beta-secretase 1 (Homo sapiens, UniProt P56817). Nature of the series: Competitive inhibition of human recombinant […] using panvera peptide as substrate preincubated for 60 mins before substrate addition by FRET assay.
T3 sequence (P56817 whole entry): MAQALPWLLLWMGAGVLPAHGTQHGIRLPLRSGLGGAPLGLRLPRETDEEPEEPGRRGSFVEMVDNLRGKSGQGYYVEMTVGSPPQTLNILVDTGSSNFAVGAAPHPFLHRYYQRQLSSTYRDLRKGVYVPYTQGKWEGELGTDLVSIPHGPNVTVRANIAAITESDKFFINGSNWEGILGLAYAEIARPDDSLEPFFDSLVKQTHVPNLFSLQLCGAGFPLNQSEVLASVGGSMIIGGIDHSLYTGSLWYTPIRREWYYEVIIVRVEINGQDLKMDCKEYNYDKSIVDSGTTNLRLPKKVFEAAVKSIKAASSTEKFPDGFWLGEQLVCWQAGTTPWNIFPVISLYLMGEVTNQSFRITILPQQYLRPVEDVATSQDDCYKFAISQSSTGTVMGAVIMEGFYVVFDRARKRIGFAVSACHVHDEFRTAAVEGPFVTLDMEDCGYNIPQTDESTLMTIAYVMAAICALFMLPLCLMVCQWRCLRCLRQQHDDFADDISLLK
Series [7] concerns the target T3, Beta-secretase 1.
Description: Inhibition of human recombinant BChE using panvera peptide as substrate preincubated for 60 mins before substrate addition by FRET assay
For series [8], the target named is T4, Acetylcholinesterase (Bos taurus, UniProt P23795).
T4 sequence (P23795 whole entry): T1 sequence (whole entry)
Description: as §2

The target of series [9] is T2, Cholinesterase. Nature of the series: Ratio of tacrine IC50 to compound IC50 for human serum BChE.

Acetylcholinesterase (Homo sapiens, UniProt P22303), sequence (P22303 whole entry): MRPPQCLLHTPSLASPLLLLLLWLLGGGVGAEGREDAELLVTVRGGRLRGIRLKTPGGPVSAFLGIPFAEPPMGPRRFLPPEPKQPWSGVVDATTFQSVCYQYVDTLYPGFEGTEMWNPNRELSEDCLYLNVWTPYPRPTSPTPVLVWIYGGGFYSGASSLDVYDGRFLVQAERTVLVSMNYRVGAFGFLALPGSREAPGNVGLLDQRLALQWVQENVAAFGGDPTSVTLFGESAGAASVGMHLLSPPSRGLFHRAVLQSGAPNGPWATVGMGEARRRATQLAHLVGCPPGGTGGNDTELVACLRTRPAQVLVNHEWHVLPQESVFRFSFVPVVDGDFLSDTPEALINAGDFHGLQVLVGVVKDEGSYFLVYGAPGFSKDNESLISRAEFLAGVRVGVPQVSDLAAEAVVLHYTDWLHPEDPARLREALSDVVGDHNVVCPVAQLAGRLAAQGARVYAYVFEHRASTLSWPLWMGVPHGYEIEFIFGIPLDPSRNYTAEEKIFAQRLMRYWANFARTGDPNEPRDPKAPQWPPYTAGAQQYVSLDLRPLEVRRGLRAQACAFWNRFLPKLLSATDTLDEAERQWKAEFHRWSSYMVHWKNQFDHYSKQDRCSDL
Cholinesterase (Equus caballus, UniProt P81908), sequence (P81908 whole entry): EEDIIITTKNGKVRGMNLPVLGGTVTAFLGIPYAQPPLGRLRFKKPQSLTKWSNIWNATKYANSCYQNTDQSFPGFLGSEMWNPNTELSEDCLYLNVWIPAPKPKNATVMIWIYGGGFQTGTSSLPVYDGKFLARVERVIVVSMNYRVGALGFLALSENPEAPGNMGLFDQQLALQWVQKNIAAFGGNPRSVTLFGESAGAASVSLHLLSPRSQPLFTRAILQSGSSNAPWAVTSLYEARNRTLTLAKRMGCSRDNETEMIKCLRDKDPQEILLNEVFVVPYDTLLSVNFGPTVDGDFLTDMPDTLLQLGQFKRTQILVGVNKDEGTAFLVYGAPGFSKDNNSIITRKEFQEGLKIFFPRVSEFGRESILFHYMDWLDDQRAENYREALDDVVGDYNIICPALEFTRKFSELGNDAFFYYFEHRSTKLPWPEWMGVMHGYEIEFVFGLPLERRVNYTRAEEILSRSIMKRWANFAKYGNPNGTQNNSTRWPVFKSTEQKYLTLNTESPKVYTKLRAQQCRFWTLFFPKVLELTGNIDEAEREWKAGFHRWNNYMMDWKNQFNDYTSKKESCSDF
Cholinesterase (Equus caballus), sequence (P81908 whole entry): as above
Description for in vitro: Permeability of the compound in phosphate buffer at pH 7.4 by PAMPA

Turning to `O=C(O)c1cc(=O)c2ccccc2o1`, the inhibition result in series [1] and in series [2] was “inactive” throughout.

As for `Cl.O=C(NCCCCCCCCCCNc1c2c(nc3cc(Cl)ccc13)CCCC2)c1cc(=O)c2cc(O)c(O)cc2o1`, the IC50 against Cholinesterase [3] was 95 nM; at Cholinesterase [4] it was 28 nM; against Acetylcholinesterase [5], 0.09 nM; on Beta-secretase 1 [7], 13600 nM; on Acetylcholinesterase [8] it was 17.5 nM. In the series “in vitro”, this molecule yielded a Papp of 5.3 ×10⁻⁶ cm/s. Also, on Beta-secretase 1 [6], the Kic stood at 3.99 µM.

`O=C(NCCCCCCCCCCCCNc1c2c(nc3ccccc13)CCCC2)c1cc(=O)c2ccccc2o1`: the IC50 amounted to 0.25 nM against Cholinesterase [4] and 150 nM on Acetylcholinesterase [8].

With `COc1cc(O)c2c(=O)cc(C(=O)NCCCCCCCCCCNc3c4c(nc5cc(Cl)cc(Cl)c35)CCCC4)oc2c1`, the IC50 at Cholinesterase [4] came to 35 nM; against Acetylcholinesterase [8] it was 80 nM.

With `Cl.O=C(NCCCCCCCCCCNc1c2c(nc3ccccc13)CCCC2)c1cc(=O)c2cc(O)c(O)cc2o1`, the IC50 against Cholinesterase [3] was found to be 30 nM; against Cholinesterase [4], 8 nM; at Acetylcholinesterase [5] it was 6.5 nM; against Acetylcholinesterase [8], 300 nM. For the same molecule, the Papp in “in vitro” was 6.3 ×10⁻⁶ cm/s.

Turning to `Cl.O=C(NCCCCCCCCCCNc1c2c(nc3cc(Cl)ccc13)CCCC2)c1cc(=O)c2ccccc2o1`, the IC50 on Cholinesterase [3] worked out at 0.08 nM; against Cholinesterase [4], 0.18 nM; against Acetylcholinesterase [5], 0.3 nM; against Beta-secretase 1 [7], 22400 nM; at Acetylcholinesterase [8], 5 nM. In the series “in vitro”, this molecule returned a Papp of 7.1 ×10⁻⁶ cm/s. Besides, on Beta-secretase 1 [6], the Kic was 6.58 µM.

`Cl.O=C(NCCCCCCCCCCNc1c2c(nc3ccccc13)CCCC2)c1cc(=O)c2ccccc2o1`: the IC50 at Cholinesterase [3] came to 0.15 nM; against Cholinesterase [4], 0.18 nM; at Acetylcholinesterase [5], 17.5 nM; at Acetylcholinesterase [8] it was 75 nM. Also, in the series “in vitro”, the Papp turned out to be 9.1 ×10⁻⁶ cm/s.

On to `O=C(NCCCCCCCCCCNc1c2c(nc3cc(Cl)cc(Cl)c13)CCCC2)c1cc(=O)c2c(O)cc(O)cc2o1`, for which the IC50 on Cholinesterase [4] was found to be 35 nM; against Acetylcholinesterase [8], 75 nM.

On to `COc1ccc2oc(C(=O)NCCCCCCCCCCNc3c4c(nc5ccccc35)CCCC4)cc(=O)c2c1.Cl`, for which the IC50 against Cholinesterase [3] was determined as 0.038 nM; against Cholinesterase [4], 0.324 nM; at Acetylcholinesterase [5], 0.775 nM; at Acetylcholinesterase [8], 35 nM. In addition, the Papp in the series “in vitro” came to 14.9 ×10⁻⁶ cm/s. For the same molecule, at Cholinesterase [9], the Ratio IC50 came out at 1050.

For the molecule `O=C(NCCCCCCCCCCNc1c2c(nc3cc(Cl)cc(Cl)c13)CCCC2)c1cc(=O)c2cc(O)c(O)cc2o1`, the IC50 against Cholinesterase [4] came out at 88 nM; at Acetylcholinesterase [8], 90 nM.

Turning to `COc1cc(OC)c2c(=O)cc(C(=O)NCCCCCCCCCCNc3c4c(nc5cc(Cl)ccc35)CCCC4)oc2c1.Cl`, the IC50 is 0.1 nM at Cholinesterase [3], 1 nM against Cholinesterase [4], 0.35 nM on Acetylcholinesterase [5] and 50 nM against Acetylcholinesterase [8]. In “in vitro”, this molecule showed a Papp of 10.7 ×10⁻⁶ cm/s.

In the case of `CC(C)C[C@H](NC(=O)[C@H](CC(N)=O)NC(=O)[C@@H](NC(=O)[C@@H](N)CC(=O)O)C(C)C)[C@@H](O)C[C@@H](C)C(=O)N[C@@H](C)C(=O)N[C@@H](CC(=O)O)C(=O)N[C@@H](Cc1ccccc1)C(=O)O` (H-DVN[LeuΨ(S-CHOHCH2)Ala]ADF-OH), at Beta-secretase 1 [6], the Kic was 0.0097 µM. The molecule also gave an IC50 against Beta-secretase 1 [7] of 33 nM.

Consider `O=c1cc(-c2ccc(O)cc2)oc2cc(O)cc(O)c12` [APIGENIN], for which the Kic at Beta-secretase 1 [6] was 11.3 µM. In addition, on Beta-secretase 1 [7], it took 38500 nM to reach half-maximal inhibition (IC50).

For the molecule `O=C(NCCCCCCCNc1c2c(nc3ccccc13)CCCC2)c1cc(=O)c2ccccc2o1`, the IC50 against Cholinesterase [4] is 1.75 nM; against Acetylcholinesterase [8] it was 100 nM.

Regarding `COc1cc(OC)c2c(=O)cc(C(=O)NCCCCCCCCCCNc3c4c(nc5cc(Cl)cc(Cl)c35)CCCC4)oc2c1`, the IC50 worked out at 0.75 nM against Cholinesterase [4] and 150 nM at Acetylcholinesterase [8].

Take `COc1cc2oc(C(=O)NCCCCCCCCCCNc3c4c(nc5cc(Cl)cc(Cl)c35)CCCC4)cc(=O)c2cc1OC`: the values for the IC50 against Cholinesterase [4] and on Acetylcholinesterase [8] were 100 nM and 175 nM, respectively.

For `COc1cc(OC)c2c(=O)cc(C(=O)NCCCCCCCCCCNc3c4c(nc5ccccc35)CCCC4)oc2c1.Cl`, the IC50 is 0.1 nM against Cholinesterase [3]; 0.325 nM against Cholinesterase [4]; 2.3 nM against Acetylcholinesterase [5]; 2100 nM on Beta-secretase 1 [7]; 100 nM at Acetylcholinesterase [8]. In “in vitro”, this molecule registered a Papp of 14.7 ×10⁻⁶ cm/s. On Beta-secretase 1 [6], the Kic is 0.62 µM.

As for `COc1ccc2oc(C(=O)NCCCCCCCCCCNc3c4c(nc5cc(Cl)ccc35)CCCC4)cc(=O)c2c1.Cl`, the IC50 stood at 0.1 nM against Cholinesterase [3]; 0.425 nM against Cholinesterase [4]; 0.1 nM against Acetylcholinesterase [5]; 14400 nM at Beta-secretase 1 [7]; 5 nM against Acetylcholinesterase [8]. The Papp in the series “in vitro” worked out at 7.5 ×10⁻⁶ cm/s. Further, the Kic on Beta-secretase 1 [6] stood at 4.23 µM.

As for `O=C(NCCCCCCCCCCNc1c2c(nc3cc(Cl)cc(Cl)c13)CCCC2)c1cc(=O)c2cc(O)ccc2o1`, the IC50 on Cholinesterase [4] was 17.5 nM; against Acetylcholinesterase [8], 350 nM.

As to `O=C(NCCCCCCCCNc1c2c(nc3ccccc13)CCCC2)c1cc(=O)c2ccccc2o1`, the IC50 against Cholinesterase [4] was determined as 0.5 nM; against Acetylcholinesterase [8] it was 150 nM.

Consider `Cl.O=C(NCCCCCCCCCCNc1c2c(nc3ccccc13)CCCC2)c1cc(=O)c2c(O)cc(O)cc2o1`, for which the IC50 at Cholinesterase [3] is 0.8 nM; against Cholinesterase [4] it was 0.35 nM; against Acetylcholinesterase [5] it was 2.3 nM; against Beta-secretase 1 [7], 3600 nM; against Acetylcholinesterase [8] it was 500 nM. In addition, in the series “in vitro”, the Papp came to 13.1 ×10⁻⁶ cm/s. For the same molecule, the Kic on Beta-secretase 1 [6] was 1.06 µM.

In the case of `O=C(NCCCCCCCCCNc1c2c(nc3ccccc13)CCCC2)c1cc(=O)c2ccccc2o1`, the IC50 against Cholinesterase [4] came to 0.58 nM; against Acetylcholinesterase [8], 125 nM.

Consider `O=C(NCCCCCCCCCCNc1c2c(nc3cc(Cl)cc(Cl)c13)CCCC2)c1cc(=O)c2ccccc2o1`, for which the IC50 against Cholinesterase [4] came to 100 nM; against Acetylcholinesterase [8], 1000 nM.

Take `COc1cc2oc(C(=O)NCCCCCCCCCCNc3c4c(nc5ccccc35)CCCC4)cc(=O)c2cc1OC.Cl`: the IC50 came out at 15 nM against Cholinesterase [3]; 0.55 nM against Cholinesterase [4]; 1.8 nM on Acetylcholinesterase [5]; 3000 nM on Beta-secretase 1 [7]; 85 nM against Acetylcholinesterase [8]. Moreover, the Papp in “in vitro” stood at 15 ×10⁻⁶ cm/s. In addition, the Kic at Beta-secretase 1 [6] was found to be 0.88 µM.

`Cl.O=C(NCCCCCCCCCCNc1c2c(nc3cc(Cl)ccc13)CCCC2)c1cc(=O)c2cc(O)ccc2o1`: the IC50 on Cholinesterase [3] came out at 1.5 nM; at Cholinesterase [4] it was 3.5 nM; against Acetylcholinesterase [5] it was 1 nM; against Acetylcholinesterase [8], 80 nM. The molecule also came in with a Papp in “in vitro” of 11.5 ×10⁻⁶ cm/s.

Regarding `Cl.O=C(NCCCCCCCCCCNc1c2c(nc3cc(Cl)ccc13)CCCC2)c1cc(=O)c2c(O)cc(O)cc2o1`, the IC50 against Cholinesterase [3] came out at 2.5 nM; at Cholinesterase [4] it was 3 nM; on Acetylcholinesterase [5], 0.065 nM; against Acetylcholinesterase [8], 10 nM. Besides, the Papp in “in vitro” was 7.8 ×10⁻⁶ cm/s.

Regarding `COc1ccc2oc(C(=O)NCCCCCCCCCCNc3c4c(nc5cc(Cl)cc(Cl)c35)CCCC4)cc(=O)c2c1`, the IC50 against Cholinesterase [4] was found to be 7.5 nM; at Acetylcholinesterase [8], 550 nM.

As to `COc1cc2oc(C(=O)NCCCCCCCCCCNc3c4c(nc5cc(Cl)ccc35)CCCC4)cc(=O)c2cc1OC.Cl`, the IC50 against Cholinesterase [3] was determined as 50 nM; against Cholinesterase [4], 0.85 nM; against Acetylcholinesterase [5], 0.2 nM; on Acetylcholinesterase [8], 6.5 nM. In the series “in vitro”, this molecule yielded a Papp of 7.4 ×10⁻⁶ cm/s.

`Cl.O=C(NCCCCCCCCCCNc1c2c(nc3ccccc13)CCCC2)c1cc(=O)c2cc(O)ccc2o1`: the 50% inhibitory concentration (IC50) at Cholinesterase [3] came to 1.5 nM; against Cholinesterase [4] it was 1 nM; on Acetylcholinesterase [5], 8 nM; at Beta-secretase 1 [7], 2800 nM; against Acetylcholinesterase [8] it was 75 nM. In the series “in vitro”, this molecule registered a Papp of 23.1 ×10⁻⁶ cm/s. At Beta-secretase 1 [6], the Kic came out at 0.82 µM.

For `COc1cc(O)c2c(=O)cc(C(=O)NCCCCCCCCCCNc3c4c(nc5cc(Cl)ccc35)CCCC4)oc2c1.Cl`, the IC50 against Cholinesterase [3] was determined as 5 nM; against Cholinesterase [4], 0.175 nM; on Acetylcholinesterase [5] it was 0.035 nM; against Acetylcholinesterase [8], 38 nM. In “in vitro”, this molecule returned a Papp of 8.7 ×10⁻⁶ cm/s.

For `COc1cc(O)c2c(=O)cc(C(=O)NCCCCCCCCCCNc3c4c(nc5ccccc35)CCCC4)oc2c1.Cl`, the IC50 against Cholinesterase [3] was determined as 1 nM; at Cholinesterase [4] it was 2 nM; on Acetylcholinesterase [5] it was 1 nM; on Beta-secretase 1 [7] it was 2900 nM; at Acetylcholinesterase [8] it was 250 nM. Moreover, the Papp in the series “in vitro” was 10.6 ×10⁻⁶ cm/s. Moreover, the Kic at Beta-secretase 1 [6] was 0.85 µM.
